What was measured:
FTSJ1 = target: T1, FTSJ1 (Homo sapiens, UniProt Q9UET6); experiment: UGA readthrough luciferase assay with FTSJ1 overexpression; assay type: cell-based
T1 construct: host or cells: HeLa
T1 sequence (Q9UET6 1-329): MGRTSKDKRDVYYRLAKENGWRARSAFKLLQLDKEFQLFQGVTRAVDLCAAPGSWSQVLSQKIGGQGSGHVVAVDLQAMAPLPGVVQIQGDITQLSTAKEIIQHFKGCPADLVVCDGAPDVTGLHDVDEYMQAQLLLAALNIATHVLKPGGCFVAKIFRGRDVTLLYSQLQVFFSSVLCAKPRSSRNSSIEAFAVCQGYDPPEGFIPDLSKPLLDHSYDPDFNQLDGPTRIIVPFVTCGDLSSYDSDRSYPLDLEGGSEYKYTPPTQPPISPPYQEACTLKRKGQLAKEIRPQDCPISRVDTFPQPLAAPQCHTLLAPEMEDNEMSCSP
Text: (§1) Firefly luciferase from HEK293FT cells transfected with the Fluc-int-UGA construct was immunoprecipitated and digested with trypsin. The MS/MS spectrum of the peptide containing the PTC position and the sequence determination are shown. The upper red and blue sequences indicate the amino acids validated, respectively, by detection of Nter and Cter peptide fragments (b and y ion series). Peptide fragments y6 and y7 clearly identify tryptophan (W) at the PTC position. The black peaks correspond to non-attributed mass-to-charge ratio (m/z) values. […] Readthrough efficiency was determined by measuring luciferase activity in HeLa cells co-transfected with the firefly luciferase construct described in Fig. 1b and with increasing amounts of an expression vector for either FTSJ1 or CTU1 (0.5, 1, or 2 µg). The empty expression vector (E.v.) was used as control. […] The experiment was performed twice and the results of both experiments (Exp1 and Exp2) are shown. c Western blot analysis of FTSJ1 and CTU1. d 2′-O-methylation analysis of tRNA^Trp, tRNA^SER, and tRNA^GLN by RiboMethSeq. […] A molecular weight marker is indicated to the left of each gel. p-values (p) were calculated using Student’s t-test. Source data are provided as a Source Data file.
(§2) Among the enzymes modifying tRNAs liable to recognize a stop codon by extended wobbling, human FTSJ1 (TRM7 in yeast) exclusively modifies tRNAs involved in UGA readthrough. In addition to other tRNA targets, FTSJ1 methylates the cytosine at position 34 of tRNA^Trp. Inhibition of this modification could increase the capacity of tRNA^Trp to misdecode and recognize the UGA stop codon. […] FTSJ1 and CTU1 overexpression were assessed by western-blot analysis (Fig. 5c).

[1] = tested on: firefly luciferase construct with UGA PTC in HeLa cells; experiment: UGA readthrough luciferase assay with empty expression vector (E.v.) control; assay type: cell-based, human;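 on luciferase activity, average: DAP exposure for 24 h before luciferase measurement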;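 on luciferase activity, exp2: DAP exposure for 24 h before luciferase measurement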
Text: as §1, §2

## Nc1nc(N)c2[nH]cnc2n1 [DAP, 2,6-diaminopurine]
FTSJ1; 0.5µg FTSJ1, 0.39µM
  luciferase activity, average: 904.125
  luciferase activity, exp1: 632.5
  luciferase activity, exp1*1,5: 948.75
  luciferase activity, exp2: 859.5
FTSJ1; 0.5µg FTSJ1, 0.78µM
  luciferase activity, average: 1247.62
  luciferase activity, exp1: 776.5
  luciferase activity, exp1*1,5: 1164.75
  luciferase activity, exp2: 1330.5
FTSJ1; 0.5µg FTSJ1, 1.56µM
  luciferase activity, average: 1901
  luciferase activity, exp1: 1287
  luciferase activity, exp1*1,5: 1930.5
  luciferase activity, exp2: 1871.5
FTSJ1; 0.5µg FTSJ1, 6.25µM
  luciferase activity, average: 9598.75
  luciferase activity, exp1: 3517
  luciferase activity, exp1*1,5: 5275.5
  luciferase activity, exp2: 13922
FTSJ1; 0.5µg FTSJ1, 25µM
  luciferase activity, average: 34831.4
  luciferase activity, exp1: 13760.5
  luciferase activity, exp1*1,5: 20640.8
  luciferase activity, exp2: 49022
FTSJ1; 0.5µg FTSJ1, 100µM
  luciferase activity, average: 81250
  luciferase activity, exp1: 48276
  luciferase activity, exp1*1,5: 72414
  luciferase activity, exp2: 90086
FTSJ1; 0.5µg FTSJ1, 300µM
  luciferase activity, average: 102352
  luciferase activity, exp1: 48428.5
  luciferase activity, exp1*1,5: 72642.8
  luciferase activity, exp2: 132062
FTSJ1; 0.5µg FTSJ1, 600µM
  luciferase activity, average: 91333.2
  luciferase activity, exp1: 34760
  luciferase activity, exp1*1,5: 52140
  luciferase activity, exp2: 130526
FTSJ1; 1µg FTSJ1, 0.39µM
  luciferase activity, average: 825.625
  luciferase activity, exp1: 545.5
  luciferase activity, exp1*1,5: 818.25
  luciferase activity, exp2: 833
FTSJ1; 1µg FTSJ1, 0.78µM
  luciferase activity, average: 1113.62
  luciferase activity, exp1: 667.5
  luciferase activity, exp1*1,5: 1001.25
  luciferase activity, exp2: 1226
FTSJ1; 1µg FTSJ1, 1.56µM
  luciferase activity, average: 1547.75
  luciferase activity, exp1: 877
  luciferase activity, exp1*1,5: 1315.5
  luciferase activity, exp2: 1780
FTSJ1; 1µg FTSJ1, 6.25µM
  luciferase activity, average: 5589
  luciferase activity, exp1: 2330
  luciferase activity, exp1*1,5: 3495
  luciferase activity, exp2: 7683
FTSJ1; 1µg FTSJ1, 25µM
  luciferase activity, average: 18207.6
  luciferase activity, exp1: 6784.5
  luciferase activity, exp1*1,5: 10176.8
  luciferase activity, exp2: 26238.5
FTSJ1; 1µg FTSJ1, 100µM
  luciferase activity, average: 59739.5
  luciferase activity, exp1: 25052
  luciferase activity, exp1*1,5: 37578
  luciferase activity, exp2: 81901
FTSJ1; 1µg FTSJ1, 300µM
  luciferase activity, average: 78923.5
  luciferase activity, exp1: 30654
  luciferase activity, exp1*1,5: 45981
  luciferase activity, exp2: 111866
FTSJ1; 1µg FTSJ1, 600µM
  luciferase activity, average: 72130.6
  luciferase activity, exp1: 22687.5
  luciferase activity, exp1*1,5: 34031.2
  luciferase activity, exp2: 110230
FTSJ1; 2µg FTSJ1, 0.39µM
  luciferase activity, average: 748.25
  luciferase activity, exp1: 541
  luciferase activity, exp1*1,5: 811.5
  luciferase activity, exp2: 685
FTSJ1; 2µg FTSJ1, 0.78µM
  luciferase activity, average: 885.625
  luciferase activity, exp1: 619.5
  luciferase activity, exp1*1,5: 929.25
  luciferase activity, exp2: 842
FTSJ1; 2µg FTSJ1, 1.56µM
  luciferase activity, average: 1120.12
  luciferase activity, exp1: 798.5
  luciferase activity, exp1*1,5: 1197.75
  luciferase activity, exp2: 1042.5
FTSJ1; 2µg FTSJ1, 6.25µM
  luciferase activity, average: 2590.25
  luciferase activity, exp1: 1505
  luciferase activity, exp1*1,5: 2257.5
  luciferase activity, exp2: 2923
FTSJ1; 2µg FTSJ1, 25µM
  luciferase activity, average: 6098.62
  luciferase activity, exp1: 3067.5
  luciferase activity, exp1*1,5: 4601.25
  luciferase activity, exp2: 7596
FTSJ1; 2µg FTSJ1, 100µM
  luciferase activity, average: 13866.6
  luciferase activity, exp1: 8407.5
  luciferase activity, exp1*1,5: 12611.2
  luciferase activity, exp2: 15122
FTSJ1; 2µg FTSJ1, 300µM
  luciferase activity, average: 32953.2
  luciferase activity, exp1: 15279
  luciferase activity, exp1*1,5: 22918.5
  luciferase activity, exp2: 42988
FTSJ1; 2µg FTSJ1, 600µM
  luciferase activity, average: 35768.5
  luciferase activity, exp1: 13538
  luciferase activity, exp1*1,5: 20307
  luciferase activity, exp2: 51230
FTSJ1; HeLa, pFluc-int-UGA
  Effect of FTSJ1 overexpression on DAP-promoted readthrough: strongly reduce DAP-promoted readthrough
[1]; 0.39µM
  luciferase activity, average: 1690.75
  luciferase activity, exp1: 838
  luciferase activity, exp1*1,5: 1257
  luciferase activity, exp2: 2124.5
[1]; 0.78µM
  luciferase activity, average: 2398.5
  luciferase activity, exp1: 1130
  luciferase activity, exp1*1,5: 1695
  luciferase activity, exp2: 3102
[1]; 1.56µM
  luciferase activity, average: 4502.75
  luciferase activity, exp1: 2583
  luciferase activity, exp1*1,5: 3874.5
  luciferase activity, exp2: 5131
[1]; 6.25µM
  luciferase activity, average: 33564.1
  luciferase activity, exp1: 10235.5
  luciferase activity, exp1*1,5: 15353.2
  luciferase activity, exp2: 51775
[1]; 25µM
  luciferase activity, average: 96238.8
  luciferase activity, exp1: 36932
  luciferase activity, exp1*1,5: 55398
  luciferase activity, exp2: 137080
[1]; 100µM
  luciferase activity, average: 228679
  luciferase activity, exp1: 118458
  luciferase activity, exp1*1,5: 177688
  luciferase activity, exp2: 279670
[1]; 300µM
  luciferase activity, average: 215676
  luciferase activity, exp1: 106186
  luciferase activity, exp1*1,5: 159278
  luciferase activity, exp2: 272074
[1]; 600µM
  luciferase activity, average: 184925
  luciferase activity, exp1: 75195.5
  luciferase activity, exp1*1,5: 112793
  luciferase activity, exp2: 257056

Source: publication PMC7083880 (Nature Communications, 2020)
